Where “and” joins values, the source holds several entries; their conditions need not be identical. Equal values may be shown once. Read-outs that look alike come from different tables or passages of the source.
Experiments:
mo-DCs = assay: Alexa-NadAΔ351-405 binding to mo-DCs (flow cytometry, Scatchard analysis); design: species or system human; conditions: Scatchard plot
Procedure: In some cases, DCs primed or not with IFN-γ were treated at 37° C. for 1 hour with FCS/RPMI containing Bafilomycin A1 200 nM, incubated at 37° C. (in RPMI medium supplemented with 10% FBS and Bafilomycin A1) or 0° C. (in PBS supplemented with 10% FBS) for 3 hours with different concentrations (0.0375-5 μM) of Alexa-NadAΔ351-405 or NadA. Afterward cells were washed and suspended in FACS buffer for FACS analysis. Scatchard plots were constructed from data obtained from cell-associated mean fluorescence intensities due to cell-bound Alexa NadA were measured. The dissociation constant Kd and maximal binding capacities were then determined by Scatchard analyses.

[1] = Heparin-agarose affinity chromatography; assay type: binding; conditions: salt gradient 0.05-3M NaCl
Procedure: Using, affinity chromatography with different buffers (phosphate 20 mM and hepes 20 mM), pH (5.5, 7.4 and 8.0) and CaCl2 concentrations, the binding of NadA to heparin was further investigated. A solution of hepes 20 mM containing 5 μg NadA was added to 100 μl of heparin-agarose pre-equilibrated in the same buffer. After washing, bound protein was eluted using a salt gradient (0.05-3M NaCl). All the fractions from the previous steps were collected and transferred to nitrocellulose membrane using Dot-blot. The protein was detected with a rabbit polyclonal anti-NadA antibody and phosphatase alcalyne-conjugated goat anti-rabbit anti-IgG with its substrate. This protocol has shown a heterogeneous behaviour for NadA. A fraction of the protein elutes at physiological salt concentrations (100-150 mM NaCl) and a further one elutes at high salt concentrations (up to 3M NaCl).

human macrophages [2] = assay: Cytokine and chemokine secretion by human macrophages (Bio-Plex, IL-23 ELISA); assay type: cell-based
Procedure: The secretion of various immune mediators by isolated adherent human […] and macrophages was assayed with a Bio-Plex immune array. The pro-inflammatory cytokines IL-1α, IL-1β, TNFα, IFNγ, IL-6, the growth factor GM-CSF, the regulatory cytokines IL-12 (p40), IL-12 (p70), IL-10, as well as the chemokines IL-8, MCP-1, MIP-1α, IP-10, RANTES and EOTAXIN were assayed. The lymphocyte cytokines IL-2, IL-3, IL-4, IL-5, IL-7, IL-13 and IL-15 were also assayed. IL-23 expression was assayed using an ELISA assay. No secretion of IL-2, IL-3, IL-4, IL-5, IL-7, IL-13 or IL-15 was detected.
Peripheral monocytes and macrophages were stimulated with different concentrations of NadAΔ351-405, with or without LPS (0.2 μg/ml) and IFNγ (1000 U/ml), and with purified E. coli or N. meningitis OMV.

human monocytes [3] = assay: Soluble mediator secretion by monocytes after 3 and 7 culture days, re-stimulated with LPS; assay type: cell-based
Procedure: The secretion of the main immune mediators by human monocytes, after 3 and 7 culture days following stimulation with NadAΔ351-405 or LPS, was tested with a Bioplex immune array after 24 hours incubation with LPS. Analysis was performed to test pro-inflammatory cytokine TNFα and IL6, regulatory cytokine IL-10 and IL-12(p70) and chemokine IL-8, MCP-1, MIP1-α, RANTES and […] secretion.

monocytes [4] = assay: NadA binding to monocytes; design: species or system human
Procedure: The graphs plot the mean fluorescence intensities (MFI) ±SD measured in monocytes that have been incubated with NadAΔ351-405-Alexa, at different concentrations (A), or with 100 nM NadAΔ351-405-Alexa in presence of increasing concentrations of unlabelled protein (B), for 3 hours at 37° C. or 0° C. The reported data are the average of three independent experiments repeated in triplicate.
The dose-dependent preferential association of NadA to CD14^+ monocytes was also confirmed by MFI analysis. Competition using non-labelled ligand ascertained whether NadA binding was specific (FIG. 12). […] Based on the molecular weight of the NadA monomer, this value is in fact ˜1 μM, since the recombinant protein used in the experiment is a homo-trimer.

human monocytes [5] = assay: Surface markers of human monocytes; assay type: cell-based
Description: The functional effect of NadA on human monocytes and macrophages was investigated using a soluble recombinant mutant lacking the membrane anchor and a full length protein expressed in E. coli OMV or N meningitidis OMV. To better define the immuno-modulatory activity of NadA, the cells were stimulated with protein plus or minus both microbial stimulus (LPS) and immunological stimulus (IFNγ).
The effect of NadAΔ351-405 on monocyte and macrophage cells was further investigated by measuring the expression of the antigen presentation marker MHC-II, the co-stimulatory molecules CD80 and CD86 and the cell adhesion molecule ICAM-1.

human macrophages [6] = assay: Morphology of macrophages (light microscopy); assay type: cell-based
Procedure: DCs cultured for 5 days in 6-well plates (Costar) were treated with recombinant human IFN-γ (1000 U/ml) for 18 h before NadA (1.5 μM) or LPS (1 μg/ml) stimulation for 4 h. Control cultures were untreated cells or treated with IFN-γ alone.
The same experiment was also carried out using macrophages.

monocytes [7] = assay: Apoptosis and survival of monocytes (caspase-3 assay, MTT assay); assay type: cell-based, human
Procedure: A) Caspase-3 assay, B) MTT assay.
The survival effect of NadA on monocytes was investigated. […] Apoptosis was not increased after a 40 hour exposure to NadAΔ351-405 or LPS. […] NadA survival effect was compared with the action of LPS or medium alone.

human monocytes [8] = assay: Cytokine and chemokine secretion by human monocytes (Bio-Plex, IL-23 ELISA); assay type: cell-based

With NadAΔ351-405 the Kd (mo-DCs; read-out: Kd1, high affinity binding sites) was 0.05 to 0.1 µM and 0.09 µM, the Kd (mo-DCs; read-out: Kd2, low affinity binding sites) was 3 to 5 µM and 4 µM and the “NaCl concentration of elution from heparin-agarose, further fraction” value [1] was “up to 3 M”. For the same substance, the “NaCl concentration of elution from heparin-agarose, one fraction” value [1] was 100 to 150 mM, the EOTAXIN expression (human macrophages [2]) was “decrease” and the GM-CSF secretion (human macrophages [2]) was “No secretion”. The IL-1α production (human macrophages [2]) was “No IL-1α was produced”, the “IL-1β and TNFα production” value (human macrophages [2]) was “produced only IL-1β and TNFα” and the IL-10 production (human macrophages [2]) was “induced the production”. The IP-10 production (human macrophages [2]; NadA alone) was “In neither monocytes nor macrophages was NadA alone able to produce IP-10”, the “IL-12(p40) expression” value (human macrophages [2]; NadA alone, even in the presence of LPS and IFNγ) was “decrease” and the IL-6 secretion (human macrophages [2]; together with IFNγ) was “increasing secretions”. For the same substance, the IL-6 production (human monocytes [3]; after 3 days of culture, re-stimulated with LPS) was “greater production of IL-6 compared to LPS-treated cells”, the IL-10 production (human monocytes [3]; cultured cells re-stimulated with LPS) was “able to induce IL-10 production” and the “decrease of the signal associated to monocytes by excess non-labelled NadA” value (monocytes [4]; 5 uM non-labelled, 125 nM Alexa-NadA, 37° C., BafA1) was −50%. The “affinity (Kd) of association to monocyte” value (monocytes [4]; NadA-I125 conjugate, Scatchard Plot) was ~3 µM, the “Kd of association to monocyte, value for the homo-trimer” value (monocytes [4]; corrected because the recombinant protein is a homo-trimer) was ~1 µM and the CD80 expression (human monocytes [5]; co-stimulation with IFN-γ) was “increased”. For the same substance, the “CD86 or HLA-DR expression” value (human monocytes [5]; with LPS or IFN-γ) was “No NadA immunomodulatory effect”, the “cell clustering compared to LPS treatment” value (human macrophages [6]) was “reduced clustering” and the “apoptotic effect compared with medium-treated monocytes” value (monocytes [7]) was “four times less”. The “apoptotic effect compared with the amount induced by LPS” value (monocytes [7]) was “two times less”, the IL-10 production (human monocytes [8]) was “induced the production” and the IL-23 expression (human monocytes [8]) was “only in the presence of IFNγ”. For the same substance, the MCP-1 production (human monocytes [8]) was “significant levels”, the “IL-1α, IL-1β and TNFα secretion” value (human monocytes [8]; NadA alone) was “not significantly induced” and the IL-8 secretion (human monocytes [8]; NadA alone) was “significant secretion”. The IP-10 production (human monocytes [8]; NadA alone) was “In neither monocytes nor macrophages was NadA alone able to produce IP-10”, the “IL-12(p40) and IL-12(p70) expression” value (human monocytes [8]; alone or in the presence of LPS) was “not significantly expressed” and the “expression of IL-1α and TNFα” value (human monocytes [8]; co-stimulation with LPS) was “inhibited”. The GM-CSF secretion (human monocytes [8]; even with IFNγ co-stimulation) was “does not stimulate secretion”, the “IL-10 expression (so in the source)” value (human monocytes [8]; only in the presence of IFNγ and LPS) was “efficiently increased” and the IL-6 secretion (human monocytes [8]; presence or absence of LPS) was “significant secretion”. For the same substance, the MIP-1α production (human monocytes [8]; with or without co-stimulus) was “produced”.

— patent US20110008279A1, “Methods and Compositions Relating to Adhesins as Adjuvants” (priority 2005, published 2011)
